Source: the CheMixHub viscosity set

Assay: xn = mol fraction of the nth substance listed

ClC(Cl)Cl + c1ccccc1
Settings | viscosity [mPa·s]
293.15 K, 101 kPa, x1 = 0.101 | 0.627
293.15 K, 101 kPa, x1 = 0.245 | 0.606
293.15 K, 101 kPa, x1 = 0.433 | 0.593
293.15 K, 101 kPa, x1 = 0.653 | 0.582
298 K, 101 kPa, x2 = 0.1452 | 0.5431
298 K, 101 kPa, x2 = 0.2124 | 0.5457
298 K, 101 kPa, x2 = 0.2765 | 0.5478
298 K, 101 kPa, x2 = 0.3958 | 0.5532
298 K, 101 kPa, x2 = 0.5047 | 0.559
298 K, 101 kPa, x2 = 0.5556 | 0.562
298 K, 101 kPa, x2 = 0.6045 | 0.566
298 K, 101 kPa, x2 = 0.6513 | 0.5702
298 K, 101 kPa, x2 = 0.6963 | 0.5751
298 K, 101 kPa, x2 = 0.781 | 0.5844
298 K, 101 kPa, x2 = 0.8594 | 0.5943
298 K, 101 kPa, x2 = 0.8965 | 0.6002
298 K, 101 kPa, x2 = 0.9322 | 0.6044
298.15 K, 101 kPa, x1 = 0.0974 | 0.587
298.15 K, 101 kPa, x1 = 0.1964 | 0.581
298.15 K, 101 kPa, x1 = 0.2012 | 0.5935
298.15 K, 101 kPa, x1 = 0.3014 | 0.5886
298.15 K, 101 kPa, x1 = 0.3582 | 0.5866
298.15 K, 101 kPa, x1 = 0.4568 | 0.5805
298.15 K, 101 kPa, x1 = 0.4857 | 0.5773
298.15 K, 101 kPa, x1 = 0.6022 | 0.57
298.15 K, 101 kPa, x1 = 0.6861 | 0.557
298.15 K, 101 kPa, x1 = 0.7542 | 0.5603
298.15 K, 101 kPa, x1 = 0.8971 | 0.546
298.15 K, 101 kPa, x2 = 0.1029 | 0.546
298.15 K, 101 kPa, x2 = 0.1297 | 0.5454
298.15 K, 101 kPa, x2 = 0.2 | 0.525
298.15 K, 101 kPa, x2 = 0.2983 | 0.5512
298.15 K, 101 kPa, x2 = 0.3141 | 0.557
298.15 K, 101 kPa, x2 = 0.3724 | 0.5535
298.15 K, 101 kPa, x2 = 0.4 | 0.541
298.15 K, 101 kPa, x2 = 0.4086 | 0.5544
298.15 K, 101 kPa, x2 = 0.49 | 0.558
298.15 K, 101 kPa, x2 = 0.5395 | 0.5613
298.15 K, 101 kPa, x2 = 0.6 | 0.555
298.15 K, 101 kPa, x2 = 0.6023 | 0.5633
298.15 K, 101 kPa, x2 = 0.6707 | 0.5656
298.15 K, 101 kPa, x2 = 0.6862 | 0.5668
298.15 K, 101 kPa, x2 = 0.7414 | 0.5709
298.15 K, 101 kPa, x2 = 0.8 | 0.574
298.15 K, 101 kPa, x2 = 0.8037 | 0.581
298.15 K, 101 kPa, x2 = 0.8801 | 0.5866
298.15 K, 101 kPa, x2 = 0.9029 | 0.587
298.15 K, 101 kPa, x2 = 0.9214 | 0.589
298.15 K, 101 kPa, x2 = 0.962 | 0.5949
298.15 K, 101.33 kPa, x1 = 0.0672 | 0.5938
298.15 K, 101.33 kPa, x1 = 0.1508 | 0.5847
298.15 K, 101.33 kPa, x1 = 0.2151 | 0.5795
298.15 K, 101.33 kPa, x1 = 0.3057 | 0.5722
298.15 K, 101.33 kPa, x1 = 0.5108 | 0.5613
298.15 K, 101.33 kPa, x1 = 0.6489 | 0.559
298.15 K, 101.33 kPa, x1 = 0.8164 | 0.5493
298.15 K, 101.33 kPa, x1 = 0.9301 | 0.5403
303.15 K, 101 kPa, x1 = 0.101 | 0.548
303.15 K, 101 kPa, x1 = 0.245 | 0.533
303.15 K, 101 kPa, x1 = 0.433 | 0.527
303.15 K, 101 kPa, x1 = 0.653 | 0.52
308 K, 101 kPa, x2 = 0.1452 | 0.4917
308 K, 101 kPa, x2 = 0.2124 | 0.4939
308 K, 101 kPa, x2 = 0.2765 | 0.4958
308 K, 101 kPa, x2 = 0.3958 | 0.5001
308 K, 101 kPa, x2 = 0.5047 | 0.5049
308 K, 101 kPa, x2 = 0.5556 | 0.5077
308 K, 101 kPa, x2 = 0.6045 | 0.5108
308 K, 101 kPa, x2 = 0.6513 | 0.5136
308 K, 101 kPa, x2 = 0.6963 | 0.5168
308 K, 101 kPa, x2 = 0.781 | 0.5225
308 K, 101 kPa, x2 = 0.8594 | 0.5282
308 K, 101 kPa, x2 = 0.8965 | 0.5311
308 K, 101 kPa, x2 = 0.9322 | 0.5336
313.15 K, 101 kPa, x1 = 0.101 | 0.483
313.15 K, 101 kPa, x1 = 0.245 | 0.473
313.15 K, 101 kPa, x1 = 0.433 | 0.47
313.15 K, 101 kPa, x1 = 0.653 | 0.471
318 K, 101 kPa, x2 = 0.1452 | 0.451
318 K, 101 kPa, x2 = 0.2124 | 0.452
318 K, 101 kPa, x2 = 0.2765 | 0.4532
318 K, 101 kPa, x2 = 0.3958 | 0.4558
318 K, 101 kPa, x2 = 0.5047 | 0.4587
318 K, 101 kPa, x2 = 0.5556 | 0.4602
318 K, 101 kPa, x2 = 0.6045 | 0.4618
318 K, 101 kPa, x2 = 0.6513 | 0.4635
318 K, 101 kPa, x2 = 0.6963 | 0.4652
318 K, 101 kPa, x2 = 0.781 | 0.4685
318 K, 101 kPa, x2 = 0.8594 | 0.472
318 K, 101 kPa, x2 = 0.8965 | 0.4738
318 K, 101 kPa, x2 = 0.9322 | 0.4755
323.15 K, 101 kPa, x1 = 0.101 | 0.431
323.15 K, 101 kPa, x1 = 0.245 | 0.426
323.15 K, 101 kPa, x1 = 0.433 | 0.43
